Results from patent US20070010444A1, “Novel mediator of neurotransmitter and psychostimulant responses” (The Regents of the University of California, priority 2005, published 2007).
“Also recorded” adds a separate entry of the source. Counter-ions that a name gives are not always drawn.

Columns and labels:
C. elegans [1] = assay: Chronic effect of amphetamine on pharyngeal pumping (plates, 20 hours); assay type: in vivo, Caenorhabditis elegans; details: 5 mM amphetamine plates
C. elegans [2] = assay: Acute amphetamine assay of pharyngeal pumping (90 minutes in M9 buffer); assay type: in vivo, Caenorhabditis elegans
C. elegans [3] = assay: Growth of worms on agar plates containing amphetamine
C. elegans [4] = assay: Muscimol effect on rate of pharyngeal contractions (plates with food); assay type: in vivo, Caenorhabditis elegans; details: N2 and eg814, plates with 0, 0.1 and 1 mM muscimol, 20 and 45 minutes

Compound | rate of pharyngeal contractions (C. elegans [1]; N2, first day adults) | rate of pharyngeal contractions (pumping) (C. elegans [1]; eg814 mutant, first day adults) | pharyngeal contractions, acute effect (C. elegans [2]; N2, 90 minutes in solution of 0, 5 and 10 mM amph) | pharyngeal contractions, acute effect (C. elegans [2]; eg814 mutant, 90 minutes in solution of 0, 5 and 10 mM amph) | gravid adults (C. elegans [3]; eg814 mutant, 5 mM amph, plated at first larval stage, after 5 days) [%] | growth rates (C. elegans [3]; eg814 mutant, 5 mM amphetamine) | growth of worms (C. elegans [3]; long-term exposure, millimolar levels of amphetamine in agar plates) | animals reaching adulthood (C. elegans [3]; wild-type (N2), 5 mM amphetamine plates, after 5 days) | inhibition of pumping (C. elegans [4])
C[C@H](N)Cc1ccccc1 [amphetamine, d-amphetamine sulfate] | greatly reduced rate of pharyngeal contractions | sustained resistance to the inhibition of pumping | inhibits pharyngeal contractions of N2 worms in a dose-dependent manner | exhibits resistance to acute amphetamine | ~100 | unaffected growth rates | dramatically suppressed the growth of worms | no wild-type animals are adults | 
NCc1cc(=O)[nH]o1 [muscimol] |  |  |  |  |  |  |  |  | exhibited similar inhibition of pumping after both 20 and 45 minutes; also recorded: inhibited pumping in both N2 and eg814 worms with a very similar dose response
